According to publication PMC10745768, “Stereoselective Synthesis and Antiproliferative Activity of Steviol-Based Diterpene 1,3-Aminoalcohol Regioisomers” (Molecules, 2023):

What was measured:
[1] = tested on: HeLa cells; experiment: MTT antiproliferative assay, HeLa; format: cell-based; details: Homo sapiens, 72 h; for inhibition at 10 µM / inhibition at 30 µM: read-out: Growth inhibition (%) ± SEM
Procedure: (§1) The in vitro anticancer effects of the presented compounds were assessed using the standard MTT [3-(4,5-dimethylthiazol2-yl)-2,5-diphenyltetrazolium bromide] assay on the following human cancer cell lines: cervical (HeLa and SiHa), breast (MCF-7 and MDA-MB-231) and ovarian cancer (A2780). The selectivity of the tested compounds was determined on murine embryonal fibroblast cells (NIH/3T3). The utilised cell lines were purchased from the European Collection of Cell Cultures (Salisbury, UK). The cells were cultivated in Eagle’s minimal essential medium supplemented with 10% fetal bovine serum, 1% non-essential amino acids and 1% antibiotic-antimycotic complex (penicillin, streptomycin, amphotericin B) at 37 °C in a humidified atmosphere containing 5% CO2. All media and supplements were purchased from Lonza Group Ltd. (Basel, Switzerland). The cancer cells were seeded into 96-well plates (5000 cells/well) and incubated overnight, and the test compounds were applied in two different concentrations (10 µM and 30 µM) and incubated for another 72 h under cell-culturing conditions. […] After 72 h, 20 µL of the 5 mg/mL MTT solution was added to each well, and the plates were incubated for 4 h. The medium was removed, and the formazan crystals produced by the mitochondrial activity were dissolved in dimethyl sulfoxide (DMSO) via shaking at 37 °C for 30 min. The absorbances were measured at 545 nm using a microplate reader (SPECTROStar Nano, BMG Labtech, Offenburg, Germany). The reference agent was cisplatin, which is a widely used cytotoxic agent. The IC50 values were calculated using sigmoid curve fitting. Two independent experiments were performed with five parallel wells for each condition. Calculations were performed using the GraphPad Prism 9 software (GraphPad Software Inc., San Diego, CA, USA).

[2] = tested on: SiHa cells; experiment: MTT antiproliferative assay, SiHa; format: cell-based; details: Homo sapiens, 72 h; for inhibition at 10 µM / inhibition at 30 µM: read-out: Growth inhibition (%) ± SEM
Procedure: as §1

[3] = tested on: A2780 cells; experiment: MTT antiproliferative assay, A2780; format: cell-based; details: Homo sapiens; for inhibition at 10 µM: A2780, 10 μM; for inhibition at 10 µM / inhibition at 30 µM: 72 h, read-out: Growth inhibition (%) ± SEM; for inhibition at 30 µM: A2780, 30 μM
Procedure: as §1

[4] = tested on: NIH/3T3 fibroblast cells; experiment: MTT assay on non-malignant fibroblasts (selectivity); format: cell-based, murine; details: Mus musculus, NIH3T3; for inhibition at 10 µM: NIH/3T3, 10 μM; for inhibition at 10 µM / inhibition at 30 µM: 72 h, read-out: Growth inhibition (%) ± SEM; for inhibition at 30 µM: NIH/3T3, 30 μM
Procedure: as §1

[5] = tested on: MDA-MB-231 cells; experiment: MTT antiproliferative assay, MDA-MB-231; format: cell-based; details: Homo sapiens; for inhibition at 10 µM: MDA-MB-231, 10 μM; for inhibition at 10 µM / inhibition at 30 µM: 72 h, read-out: Growth inhibition (%) ± SEM; for inhibition at 30 µM: MDA-MB-231, 30 μM
Procedure: as §1

[6] = tested on: human cancer cell lines (HeLa, SiHa, MCF-7, MDA-MB-231, A2780); experiment: MTT antiproliferative assay, panel of malignant cells; format: cell-based; details: for antiproliferative action at higher concentration (in words): 30 μM
Procedure: as §1

[7] = tested on: MCF-7 cells; experiment: MTT antiproliferative assay, MCF-7; format: cell-based; details: Homo sapiens, MCF7; for inhibition at 10 µM: MCF-7, 10 μM; for inhibition at 10 µM / inhibition at 30 µM: 72 h, read-out: Growth inhibition (%) ± SEM; for inhibition at 30 µM: MCF-7, 30 μM
Procedure: as §1

Row | SMILES | melting point | inhibition at 10 µM [1] | inhibition at 30 µM [1] | inhibition at 10 µM [2] | inhibition at 30 µM [2] | inhibition at 10 µM [3] | inhibition at 30 µM [3] | inhibition at 10 µM [4] | inhibition at 30 µM [4] | inhibition at 10 µM [5] | inhibition at 30 µM [5] | antiproliferative action at higher concentration (in words) [6] | inhibition at 10 µM [7] | inhibition at 30 µM [7] | also measured
1 | COC(=O)[C@]1(C)CCC[C@@]2(C)[C@@H]3CC[C@@]4(CO)C[C@]3(CC[C@@H]21)C[C@H]4N [Compound 6, (4R,4aS,6aR,8R,9R,11aR,11bS)-Methyl 8-amino-9-(hydroxymethyl)-4,11b-dimethyltetradecahydro-6a,9-methanocyclohepta[a]naphthalene-4-carboxylate] | 166 to 170 °C | 23.2 ± 1.97% | 93.94 ± 0.55% | < 20% | 68.24 ± 0.61% | 24.8 ± 5.19% | 82.5 ± 4.66% | 22.1 ± 1.54% | 98.27 ± 0.37% | 25.8 ± 2.49% | 97.6 ± 0.67% | pronounced cell growth inhibition | 36.4 ± 3.48% | 98.58 ± 0.22% | 
2 | COC(=O)[C@]1(C)CCC[C@@]2(C)[C@@H]3CC[C@@]4(CO)C[C@]3(CC[C@@H]21)C[C@@H]4N [Compound 7, (4R,4aS,6aR,8S,9R,11aR,11bS)-Methyl 8-amino-9-(hydroxymethyl)-4,11b-dimethyltetradecahydro-6a,9-methanocyclohepta[a]naphthalene-4-carboxylate] | 127 to 130 °C | 24.9 ± 2.49% | 96.89 ± 0.54% | < 20% | 88.6 ± 2.01% | 27 ± 4.31% | 91.6 ± 1.97% | < 20% | 97.76 ± 0.7% | 28 ± 1.84% | 97.67 ± 0.67% | pronounced cell growth inhibition | 43.1 ± 3.79% | 99.33 ± 0.24% | 
3 | COC(=O)[C@]1(C)CCC[C@@]2(C)[C@@H]3CC[C@@]4(CO)C[C@]3(CC[C@@H]21)C[C@H]4N[C@@H](C)c1ccc2ccccc2c1 [Compound 16, (4R,4aS,6aR,8R,9R,11aR,11bS)-Methyl 9-(hydroxymethyl)-4,11b-dimethyl-8-(((S)-1-(naphthalen-2-yl)ethyl)amino)tetradecahydro-6a,9-methanocyclohepta[a]naphthalene-4-carboxylate] | 105 to 108 °C | 55.4 ± 2.81% | 95.7 ± 1.12% | 80 ± 1.41% | 89.4 ± 1.03% | 97.6 ± 2.81% | 100.3 ± 0.57% | < 20% | 96.83 ± 0.66% | 84.4 ± 2.92% | 93.6 ± 1.23% |  | 81 ± 2.03% | 97.95 ± 0.56% | IC50 ([1]; read-out: calculated IC50): 3.4 µM; IC50 ([2]; read-out: calculated IC50): 6.33 µM; IC50 ([3]; A2780, 72 h, read-out: calculated IC50): 4.43 µM; IC50 ([4]; NIH/3T3, 72 h, read-out: calculated IC50): 17.4 µM; IC50 ([5]; MDA-MB-231, 72 h, read-out: calculated IC50): 4.51 µM; IC50 ([6]; Homo sapiens, range over the five cancer cell lines): 3.44 to 6.33 µM; IC50 ([7]; MCF-7, 72 h, read-out: calculated IC50): 3.88 µM
4 | COC(=O)[C@]1(C)CCC[C@@]2(C)[C@@H]3CC[C@@]4(CN=[N+]=[N-])C[C@]3(CC[C@@H]21)CC4=O [Compound 19, (4R,4aS,6aR,9S,11aR,11bS)-Methyl 9-(azidomethyl)-4,11b-dimethyl-8-oxotetradecahydro-6a,9-methanocyclohepta[a]naphthalene-4-carboxylate] | 97 to 99 °C | 31.6 ± 1.34% | 46.86 ± 0.27% | < 20% | < 20% | < 20% | 41.7 ± 1.99% | < 20% | < 20% | < 20% | < 20% | no substantial action | < 20% | 38 ± 1.36% | 
5 | COC(=O)[C@]1(C)CCC[C@@]2(C)[C@@H]3CC[C@@]4(CN=[N+]=[N-])C[C@]3(CC[C@@H]21)C[C@H]4O [Compound 20, (4R,4aS,6aR,8R,9S,11aR,11bS)-Methyl 9-(azidomethyl)-8-hydroxy-4,11b-dimethyltetradecahydro-6a,9-methanocyclohepta[a]naphthalene-4-carboxylate] | 72 to 74 °C | < 20% | < 20% | < 20% | < 20% | < 20% | 27 ± 2.25% | < 20% | < 20% | < 20% | < 20% | no substantial action | < 20% | 30.7 ± 0.93% | 
6 | COC(=O)[C@]1(C)CCC[C@@]2(C)[C@@H]3CC[C@@]4(Cn5cc(Cc6ccccc6)nn5)C[C@]3(CC[C@@H]21)CC4=O [Compound 34, (4R,4aS,6aR,9S,11aR,11bS)-Methyl 9-((4-benzyl-1H-1,2,3-triazol-1-yl)methyl)-4,11b-dimethyl-8-oxotetradecahydro-6a,9-methanocyclohepta[a]naphthalene-4-carboxylate] | 172 to 176 °C | < 20% | 75.2 ± 1.26% | < 20% | 58.8 ± 2.24% | 31.8 ± 1.6% | 89.59 ± 0.45% | < 20% | 72.5 ± 0.96% | < 20% | 50.1 ± 2.41% |  | 37.5 ± 2.1% | 81.3 ± 2.02% | 
7 | COC(=O)[C@]1(C)CCC[C@@]2(C)[C@@H]3CC[C@@]4(Cn5cc(-c6ccccc6)nn5)C[C@]3(CC[C@@H]21)C[C@H]4O [Compound 35, (4R,4aS,6aR,8R,9S,11aR,11bS)-Methyl 8-hydroxy-4,11b-dimethyl-9-((4-phenyl-1H-1,2,3-triazol-1-yl)methyl)tetradecahydro-6a,9-methanocyclohepta[a]naphthalene-4-carboxylate] | 154 to 156 °C | < 20% | 88.11 ± 0.75% | < 20% | 81.4 ± 2.84% | 43.2 ± 1.63% | 97.37 ± 0.38% | 54.8 ± 1.4% | 93 ± 1.01% | < 20% | 92.44 ± 0.59% |  | 70 ± 3.11% | 88.79 ± 0.44% | 
8 | COC(=O)[C@]1(C)CCC[C@@]2(C)[C@@H]3CC[C@@]4(Cn5cc(Cc6ccccc6)nn5)C[C@]3(CC[C@@H]21)C[C@H]4O [Compound 36, (4R,4aS,6aR,8R,9S,11aR,11bS)-Methyl 9-((4-benzyl-1H-1,2,3-triazol-1-yl)methyl)-8-hydroxy-4,11b-dimethyltetradecahydro-6a,9-methanocyclohepta[a]naphthalene-4-carboxylate] | 112 to 114 °C | < 20% | 89.32 ± 0.63% | < 20% | 79.4 ± 3.17% | 29.3 ± 1.68% | 96.31 ± 0.53% | < 20% | 92.91 ± 0.87% | < 20% | 91.38 ± 0.65% |  | 45.9 ± 3.4% | 91.8 ± 0.74% | 
